Patent US10538443B2, “Method of degradation and inactivation of antibiotics in water by immobilized enzymes onto functionalized supports” (Luxembourg Institute of Science and Technology (LIST), priority 2014, dated 2020)
Positions of bridges follow the written chain, without caps; N, C: chain ends. Non-standard residues stand in square brackets, D forms with d. Residues, ends and D or L forms follow the SMILES beside them. *: point of attachment. Ileψ(thiazoline)Cys = CC[C@H](C)[C@H](N)C1=N[C@H](C(=O)*)CS1; dOrn = NCCC[C@@H](N)C(=O)O

Assays:
[1] = system: rat hepatoma cell line H4IIE.Luc; assay: Cytotoxicity test, Cell Viability Assay AlamarBlue; format: cell-based; settings: amoxicillin 80 μg·mL^−1; T0 (before metabolization by enzymes)
Protocol: (§1) For this, the tests were carried out on the degradation media before (T0) and after metabolization by enzymes immobilized on PGMA and DOPA functionalized Kaldnes after 30 min, 1 h and 24 h of contact.
(§2) The tests are performed with the maximum volume of test solution that can be provided and defined by the standards cited earlier. The results are expressed as a percentage of growth inhibition for algae and Daphnia test, as percentage of light emission inhibition for the Microtox test and as percentage of cell viability inhibition for cytotoxicity tests.

[2] = system: Vibrio fischeri; settings: 0 min, 80 μg·mL^−1
Protocol: as §1, §2

[3] = biological target: T1, NDM-1 (Klebsiella pneumoniae, UniProt C7C422); format: biochemical, K. pneumoniae; settings: free NDM-1 300 μg·ml^−1, antibiotic 100 μg·ml^−1, final volume 1 mL, deionized water, HEPES 12.5 mM, room temperature, 100 rpm
T1 construct: His tag (inferred from the HisTrap FF purification and the pOPINF vector; no tag is printed as such); made in house; host or cells: Escherichia coli BL21 2D3
Protocol: The production of protein performed as described by Green V. L. et al. (Acta Crystallogr. 2011, F67, 1160-1164) with few modifications: An additional step of freezing is added before cell lysis with French press. The NDM-1 isolation and purification are only performed with HisTrap FF column (GE Healthcare). Three washes in Amicon® Ultra-4 Centrifugal Filter Units 3,000 NMWL (1000×g for 15 min) allow to remove excess imidazole. Enzymes are then re-suspended in PBS.
(§3) Degradation experiments have been performed, using a concentration of free NDM-1 enzyme of 300 μg·ml^−1 in an aqueous medium comprising deionized water and HEPES 12.5 mM. Antibiotic is added at final concentration of 100 μg·ml^−1 (final volume: 1 mL). Degradation assay are performed under agitation of 100 rpm at room temperature during 1 hour. UV absorbance measurements are achieved to determine the evolution of the concentration of the antibiotics in the medium.

[4] = system: Selenastrum capricornutum; assay: Acute toxicity test on microalgae (ISO 8692: 2012), growth inhibition; format: cell-based; settings: 90 μg·mL^−1
Protocol: as §1, §2

[5] = Autolysis of antibiotic after 1 hour; format: physicochemical; settings: antibiotic 100 μg·ml^−1, deionized water, HEPES 12.5 mM, room temperature
Protocol: as §3

[6] = system: Daphnia magna Straus; assay: Daphnia acute toxicity test (ISO 6341: 2012); format: in vivo; settings: amoxicillin 90 μg·mL^−1; T0 (before metabolization by enzymes)
Protocol: as §1, §2

[7] = Storage of the Kaldnes carriers at 4° C., length of preservation of activity; format: physicochemical
Protocol: The biofunctionalized Kaldnes carriers, after being dried, have been kept in the fridge at 4° C. Antibiotics degradation tests were performed onto the carriers to measure the activity.

[8] = Degradation of amoxicillin (100 μg/ml) in filtered tap water with HEPES by immobilized or free enzyme, UV absorbance every 24 hours; format: biochemical
Protocol: Once the Kaldnes carriers have been activated according to the above protocol, the enzymatic activity is measured. Two antibiotics present in an aqueous medium have been tested.
A sample of tap water, prealably filtered on a syringe filter unit (disposable pore size of 0.22 μm) and with HEPES (12.5 mM), and the antibiotics at a concentration of 100 μg/ml.
For comparison purposes, degradation of the antibiotic with the free enzyme will be tested. The sample of tap water, prealably filtered on a syringe filter unit (disposable pore size of 0.22 μm) and with HEPES (12.5 mM), and the antibiotics at a concentration of 100 μg·ml^−1, is prepared.
UV absorbance measurements are achieved to determine the evolution of the concentration of the antibiotics. […] The absorbance, and the thus the concentration, is determined every 24 hours.

[9] = Kaldnes biochips, PGMA based layer, Tween 20 (5%), enzyme 1.985 mg
[10] = Kaldnes biochips, dopamine as layer precursor, no Tween 20, enzyme 1.985 mg
[11] = enzyme in its free form 2 mg, no Tween 20

For CC1(C)S[C@@H]2[C@H](NC(=O)[C@H](N)c3ccc(O)cc3)C(=O)N2[C@H]1C(=O)O [amoxicillin], the “Percentage of inhibition, Cell Viability Assay” value [1] was 19 ± 5%, the “Percentage of inhibition, Microtox” value [2] was 41 ± 12% and the “degraded amount after 1 hour” value [3] was 10 ± 2 µg. For the same molecule, the “Percentage of inhibition, Alga test” value ([4]; 0 min) was 55 ± 6%, the “Percentage of inhibition, Alga test” value ([4]; 24 h) was 0% and the “Autolysis of antibiotic after 1 hour” value [5] was 0 µg/mL. The “Percentage of inhibition, Daphnia Test” value [6] was 56 ± 4%.

With CC[C@H](C)[C@H](N)C1=N[C@H](C(=O)N[C@@H](CC(C)C)C(=O)N[C@H](CCC(=O)O)C(=O)N[C@H](C(=O)N[C@H]2CCCCNC(=O)[C@H](CC(N)=O)NC(=O)[C@@H](CC(=O)O)NC(=O)[C@H](Cc3cnc[nH]3)NC(=O)[C@@H](Cc3ccccc3)NC(=O)[C@H]([C@@H](C)CC)NC(=O)[C@@H](CCCN)NC2=O)[C@@H](C)CC)CS1 [bacitracin] ({Ileψ(thiazoline)Cys}-L[dE]IK[dOrn]I[dF]H[dD]N; lactam 4-C) the “degraded amount after 1 hour” value [3] was 5 ± 0.8 µg and the “Autolysis of antibiotic after 1 hour” value [5] was 0 µg/mL.

In the case of CC[C@H]1OC(=O)[C@H](C)[C@@H](O[C@H]2C[C@@](C)(OC)[C@@H](O)[C@H](C)O2)[C@H](C)[C@@H](O[C@@H]2O[C@H](C)C[C@H](N(C)C)[C@H]2O)[C@](C)(O)C[C@@H](C)C(=O)[C@H](C)[C@@H](O)[C@]1(C)O [erythromycin], the “degraded amount after 1 hour” value [3] is reported as 6.8 ± 2.3 µg and the “Autolysis of antibiotic after 1 hour” value [5] is reported as 0 µg/mL.

With CCC[C@@H]1C[C@@H](C(=O)N[C@@H]([C@H]2O[C@H](SC)[C@H](O)[C@@H](O)[C@H]2O)[C@@H](C)O)N(C)C1 [lincomycin] the “degraded amount after 1 hour” value [3] was 5 ± 1.5 µg and the “Autolysis of antibiotic after 1 hour” value [5] was 0.01 µg/mL.

With Cc1cc(NS(=O)(=O)c2ccc(N)cc2)no1 [sulfamethoxazole] the “degraded amount after 1 hour” value [3] was 3.2 ± 0.8 µg and the “Autolysis of antibiotic after 1 hour” value [5] was 0 µg/mL.

For COc1cc(Cc2cnc(N)nc2N)cc(OC)c1OC [trimethoprime], the “degraded amount after 1 hour” value [3] was 2.5 ± 0.95 µg and the “Autolysis of antibiotic after 1 hour” value [5] was 0.01 µg/mL.

With CC[C@H]1OC(=O)C[C@@H](O)[C@H](C)[C@@H](O[C@@H]2O[C@H](C)[C@@H](O[C@H]3C[C@@](C)(O)[C@@H](O)[C@H](C)O3)[C@H](N(C)C)[C@H]2O)[C@@H](CC=O)C[C@@H](C)C(=O)/C=C/C(C)=C/[C@@H]1CO[C@@H]1O[C@H](C)[C@@H](O)[C@@H](OC)[C@H]1OC [tylosine] the “degraded amount after 1 hour” value [3] was 7.4 ± 1.1 µg and the “Autolysis of antibiotic after 1 hour” value [5] was 0.01 µg/mL.

B1: NDM-1: New-Dehli metallo-β-lactamase 1, K. pneumoniae gene produced in E. coli BL21 2D3, used free or immobilized on Kaldnes biochips (protein, UniProt C7C422 29-270, looked up)
Metallo-beta-lactamase type 2: GEIRPTIGQQMETGDQRFGDLVFRQLAPNVWQHTSYLDMPGFGAVASNGLIVRDGGRVLVVDTAWTDDQTAQILNWIKQEINLPVALAVVTHAHQDKMGGMDALHAAGIATYANALSNQLAPQEGMVAAQHSLTFAANGWVEPATAPNFGPLKVFYPGPGHTSDNITVGIDGTDIAFGGCLIKDSKAKSLGNLGDADTEHYAASARAFGAAFPKASMIVMSHSAPDSRAAITHTARMADKLR
In the case of B1, the Length of preservation ([7]; stored as Kaldnes + PGMA) is reported as 1 month, the Length of preservation ([7]; stored as Kaldnes + PGMA + enzyme) is reported as 2 months and the Length of preservation ([7]; stored as Kaldnes + PGMA + enzyme + Tween 20) is reported as 2 weeks. For the same molecule, the Length of preservation ([7]; stored as Kaldnes + dopamine) was 3 weeks, the Length of preservation ([7]; stored as Kaldnes + dopamine + enzyme) was 1 month and the Length of preservation ([7]; stored as Kaldnes + dopamine + enzyme + Tween 20) was 2 weeks. For the same molecule, the “Amount of degraded amoxicillin” value [8, 9] was 3502 ± 191 µg, the Duration of activity [8, 9] was 22 days and the “Amount of degraded amoxicillin” value [8, 10] was 3021 ± 51 µg. The Duration of activity [8, 10] was 10 days, the “amount of amoxicillin degraded, immobilized versus free form” value ([8]; Kaldnes carrier, Table V) was “about 8 times” and the “Amount of degraded amoxicillin” value [8, 11] was 390 ± 45 µg. It also gave a Duration of activity [8, 11] of 4 days.
